In a melting point compilation (Tetko et al.; mined from patent text by program, amines drawn as free bases though some values may be those of a salt):
Residues, ends and D or L forms follow the SMILES beside them.

Row | Structure (SMILES) | melting point
1 | C=CCN1CCN(c2cc3c(cc2F)c(=O)c(C(=O)O)cn3CC=C)CC1 | 186 °C
2 | CN1c2ccccc2CC1COc1ccc(CC2SC(=O)NC2=O)cc1 (stereo not drawn) | 46.1 to 48.9 °C
3 | COC(=O)c1cc(N)c(F)c(-c2ccc(Cl)cc2)n1 | 177 to 179 °C
4 | NC(=O)CCC(N)C(=O)NCC(=O)NCC(=O)NC(CO)C(=O)NC(CC(N)=O)C(=O)NC(Cc1ccccc1)C(N)=O (stereo not drawn) (H-QGGSNF-NH2; configuration not given here) | 202 to 204 °C
5 | CCC1CCC(c2ccc(-c3cc(F)c(C(F)(F)Oc4cc(F)c(C(F)(F)F)c(F)c4)c(F)c3)c(F)c2)OC1 (stereo not drawn) | 90 °C
6 | CC(C)(C)NCC(O)COc1ccccc1-c1csnn1 (stereo not drawn) | 99 to 100 °C
7 | COc1nccc2c(C)c3[nH]c4ccncc4c3cc12 | > 263 °C
8 | CCCCn1c(=O)c(NC(=O)Nc2c(C(C)C)cccc2C(C)C)c(-c2cccc(OC)c2)c2cccnc21 | 178 to 181 °C
9 | CCOC(=O)C1CC(O)CN1C(=O)c1ccc(OC)c(OC)c1 (stereo not drawn) | 128 °C
10 | CC(C)n1nc(-c2cc(C#N)c(Cl)nc2-c2ccccc2)ccc1=O | 191 to 192 °C
11 | CN1CCC(C(=O)CCc2ccccc2O)CC1 | 99 to 101 °C
12 | c1ccc(CNc2nccc3[nH]cnc23)cc1 | 60 to 64 °C
13 | O=C(Nc1ccc(-c2nnn[nH]2)cc1)C(=O)N1CCC(Cc2ccccc2)CC1 | 127 to 129 °C
14 | CCn1nc2c(N)nc3ccccc3c2c1C | 217 to 218 °C
15 | N#Cc1ccc(-c2cc3ccccc3[nH]2)cc1 | 201 °C
16 | COc1cc(Sc2nc(C)c(CC(=O)O)s2)nc(OC)n1 | 164 to 165 °C
17 | O=C1C=C(c2cccc(C(F)(F)F)c2)CO1 | 124 to 125 °C
18 | O=C(O)Cn1c(-c2ccc(F)cc2)nc2cccnc21 | > 250 °C
19 | COc1ccc(C(=O)Nc2c(Cl)cncc2Cl)cc1O | 227 to 228 °C
20 | N#CC1CN1C(=O)c1ccc(-c2ccccc2)cc1 (stereo not drawn) | 104 to 106 °C
21 | CC(C)c1ccc(C2c3ccc(O)cc3OC2(C)C)cc1 (stereo not drawn) | 114 to 115 °C
22 | Cc1cc([N+](=O)[O-])c(Cl)c([N+](=O)[O-])c1C | 109 to 111 °C
23 | COc1c(C(O)CNC(C)(C)Cc2c(C)cc(C)cc2C)ccc(O)c1O (stereo not drawn) | 98 to 105 °C
24 | COC(=O)c1c(C(F)F)nc(C(F)(F)F)c(C(=O)OC)c1CC(C)C | 36 to 37 °C
25 | CN(C)S(=O)(=O)c1cc(-c2csc(=Nc3ccccc3Cl)n2C)ccc1Cl | 152 to 154 °C

Row | Structure (SMILES) | melting point
26 | O=C(O)/C=C/c1ccc(-c2nc3c(=O)n(CCC4=CCCCC4)c(=O)n(CCC4=CCCCC4)c3[nH]2)cc1 | > 250 °C
27 | O=C(O)c1cc(-c2ccccc2)c(=O)n2c1-c1sccc1C2 | > 300 °C
28 | CNC(=O)c1sc(C(C)(C)C)cc1NC(=O)Nc1ccc(C(C)C)cc1 | 113 to 120 °C
29 | COc1cc(C=O)ccc1OC(C)c1nc(-c2ccccc2)oc1C (stereo not drawn) | 104 to 105 °C
30 | COc1ccc(NS(=O)(=O)c2ccc([N+](=O)[O-])cc2[N+](=O)[O-])cc1 | 115 to 116 °C
31 | O=C(OCN1C(=O)CN(CCN2CC(=O)N(COC(=O)c3cccs3)C(=O)C2)CC1=O)c1cccs1 | 158 to 160 °C
32 | CSc1nc(C#N)c(C#N)nc1SC | 139 to 142 °C
33 | CCn1cc(C(=O)O)c(=O)c2cc(F)c(N3CCC(N(C)C)CC3)c(F)c21 | 210 to 211 °C
34 | Cc1ccc2sc(-c3ccccc3)c(N(C)C)c2c1 | 89 to 92 °C
35 | O=C1c2ccccc2C(=O)c2c1c(Cl)c1ccc(Sc3ccccc3)cc1c2Cl | 160 to 163 °C
36 | FC(F)(F)c1cc(CCC2OCCNC2c2ccccc2)cc(C(F)(F)F)c1 (stereo not drawn) | 114 to 116 °C
37 | COc1ccc(-c2nc3cnc4ccccc4c3n2CC(C)C)cc1OC | 192 to 199 °C
38 | COc1cccc(Nc2nc(N)nc3c2-c2ccccc2C3)c1 | 187 °C
39 | COc1cc(OC)c2c(=O)[nH]c(-c3cc(C)c(OCCN4CCCCCC4)c(C)c3)nc2c1 | 198 to 199 °C
40 | Cc1cccc2c(=O)nc(-c3cccc(C(=O)OC(C)(C)C)n3)sc12 | 204 to 205 °C
41 | C=CCOc1ccc(C(=O)C=Cc2c(OC)cccc2OC)cc1 | 102 to 103 °C
42 | CCN(CC)CC#CCCC(=O)C(O)(c1ccccc1)C1CCCC1 (stereo not drawn) | 128 to 129 °C
43 | O=C(O)CCc1cn(Cc2ccc(OCc3cccc(-c4cnccn4)c3)cc2)cc1-c1ccccc1 | 91 to 92 °C
44 | O=C(O)CCCCOc1cccc2occc12 | 108 °C
45 | Cc1c(C(=O)O)oc2cc(SC(=O)N(C)C)ccc12 | 188 to 190 °C
46 | CN1CCN(c2ccc(Nc3ncc4ccc(-c5cccc(CN(C)S(C)(=O)=O)c5)n4n3)cc2)CC1 | 229 to 230 °C
47 | Cc1cc(-c2ccc(C(F)(F)F)cc2)nc(-c2cccc(-c3cccc(S(N)(=O)=O)c3)c2)n1 | 224 °C
48 | N#Cc1cc(C(O)CNC2CCCC2)ccc1N (stereo not drawn) | 158 to 160 °C
49 | Oc1ccc2c(c1)NCC2 | 115 to 120 °C
50 | CC1=C(C(=O)OC(C)(C)C)C(c2cccc(F)c2)C(C(=O)OC(C)(C)C)=C(C)N1 | 178 to 179 °C

Row | Structure (SMILES) | melting point
51 | O=C1CN(C(=O)Cl)C(c2ccccc2)c2cc(Cl)ccc2N1 (stereo not drawn) | 181 to 184 °C
52 | CCOC(=O)[C@H](Cc1ccc(-c2c(OC)cc(COS(C)(=O)=O)cc2OC)cc1)NC(=O)c1c(F)cccc1Cl | 104 to 107 °C
53 | CCCc1ccc2nc(F)c(S(N)(=O)=O)n2n1 | 148 °C
54 | COC(=O)c1cc(Br)c2cc(Cc3ccc(F)cc3)cnc2c1O | 152 °C
55 | CCOCc1nc2c(N)nc3ccccc3c2n1CC1(OCCS(C)(=O)=O)CCC1 | 221 to 223 °C
56 | Nc1ccc(SC(F)(F)F)cc1[N+](=O)[O-] | 86 °C
57 | CCCc1ccc(C(=O)C(=O)OCC)[nH]1 | 48 to 49 °C
58 | CCOC(=O)c1ccc(NCCc2cccc3ccccc23)cc1 | 104 to 106 °C
59 | COc1ccccc1-c1ccccc1C1=NC(C)(C)CO1 | 129 to 131 °C
60 | CC(C)(C)NC(=O)[C@@H]1CCCN1C(=O)[C@@H](O)[C@H](Cc1ccccc1)NC(=O)[C@H](CC(N)=O)NC(=O)COC1CCC(NC(=O)OCc2ccccc2)CC1 (stereo partly drawn) | 109 to 114 °C
61 | N#Cc1ccc(OCCCCl)cc1 | 40 to 44 °C
62 | N#Cc1cc(-c2ccoc2)c2ccc(OCc3cccc(-c4ccc(Cl)cc4)n3)cc2c1 | 174 to 177 °C
63 | CCCn1nc2c(N)nc3ncccc3c2c1CC(C)(C)C#N | 249 to 252 °C
64 | CCOCCOc1ccc(OCC(O)CNCCNC(=O)N2CCOCC2)c(Br)c1 (stereo not drawn) | 98 °C
65 | Nc1nc2c(NCc3ccccc3)ncnc2n1C1OC(CO)C(O)C1O (stereo not drawn) | 80 to 82 °C
66 | CNC(=O)Nc1cc(C(C)(C)C)on1 | 187 to 188 °C
67 | O=C1N(Cc2ccc(Cl)cc2)c2ccccc2C1(O)c1cc(OCc2ccccc2)ccc1O (stereo not drawn) | 172 to 175 °C
68 | Cc1cccc(Nc2n[nH]c3ncnc(NCc4ccccc4)c23)c1 | 200 to 201 °C
69 | CCOC(=O)NN(C)c1ccc(-c2ccccc2)nn1 | 129 to 130 °C
70 | COc1cc2nc(N)nc(-c3ccccc3OC(F)(F)F)c2cc1OC | 235 to 237 °C
71 | CCCc1c(OCCCCCCC2CC(=O)c3ccc(OCC(=O)OC)c(CCC)c3O2)ccc(C(C)=O)c1O (stereo not drawn) | 121 to 124 °C
72 | Oc1ncc(Br)cc1C(F)(F)F | 160 to 162 °C
73 | CC1(C)OC(=O)Nc2ccc(-c3cc(Cl)cc(Cl)c3)cc21 | 245 to 246 °C
74 | C[C@]1(c2ccccc2)C[C@@]1(NS(=O)(=O)c1ccc(-c2cc(C(F)(F)F)on2)s1)C(=O)O | 130 to 132 °C
75 | O=c1ccc2c(n1CCc1ccccc1)CCCC2NCCc1ccc(Cl)c(Cl)c1 (stereo not drawn) | 120 to 122 °C

Row | Structure (SMILES) | melting point
76 | Cc1c(C#N)sc2nc(-c3ccc([N+](=O)[O-])cc3)nc(N3CCNCC3)c12 | 250 °C
77 | NC(=O)C(c1ccccc1Cl)N1CCc2sccc2C1 (stereo not drawn) | 124 to 126 °C
78 | COc1ccc(Cn2c(O)nc3c(N)nc4ccccc4c32)cc1 | > 260 °C
79 | Cc1cccc(-c2nc(N)sc2-c2cccc(-c3ccc(S(C)(=O)=O)cc3)c2)n1 | 107 to 109 °C
80 | Nc1ncc(CCN2CCN(c3ccccn3)CC2)s1 | 158 to 161 °C
81 | Cc1c(F)c(N2CCC(N)C2)nc2c1c(=O)c(C(=O)O)cn2-c1ccc(F)cc1F (stereo not drawn) | 260 °C
82 | O=C1c2ccccc2C(O)(c2ccc(Cl)cc2)N1Cc1ccc([N+](=O)[O-])cc1 (stereo not drawn) | 197 to 200 °C
83 | COC1(c2cc(OCc3ccc4c(ccc(=O)n4C)c3)cc(C(F)(F)F)c2)CCOCC1 | 103 °C
84 | Oc1c(-c2ccc(F)cc2)nn2ccccc12 | 178 to 179 °C
85 | COP(=O)(OC)C(O)[C@H](CC1CCCCC1)NC(=O)[C@H](CC(C)C)NC(=O)OCc1ccccc1 (stereo partly drawn) | 151 °C
86 | Cn1cc(C2=C(c3cn(CCCO)c4ccccc34)C(=O)NC2=O)c2ccccc21 | 185 to 187 °C
87 | CN1CCC[C@H]1c1cnc(Cl)cc1C(O)(c1ccc(C(C)(C)C)cc1)c1ccc(C(C)(C)C)cc1 | 226 to 230 °C
88 | CCOCc1cc(I)c(=O)[nH]c1C | 220 to 222 °C
89 | CCOC(=O)c1sc(C)c2nc(OCC)n(Cc3ccc(-c4ccccc4C#N)cc3)c12 | 153 to 155 °C
90 | COc1cc(C(=O)NNC(=N)N)c(OC)cc1C | 193 °C
91 | O=C1c2cc3nnn(CC4(c5cccc(F)c5)CC4)c(=O)c3cc2OC2CCCN12 (stereo not drawn) | 162 to 163 °C
92 | O=C(O)c1cccc(-c2nn(Cc3ccccc3)c3ccccc23)c1 | 190 to 192 °C
93 | COc1cccc(CNC(=O)c2cc3c(s2)N(C)CNC3)c1 | 279 to 281 °C
94 | CCC1(Cl)Cc2cc(OCC(=O)OC)c(Cl)c(Cl)c2C1=O (stereo not drawn) | 111 °C
95 | O=C(c1ccccc1Cl)P1(=O)Oc2ccccc2-c2ccccc21 (stereo not drawn) | 108 to 110 °C
96 | Brc1ccccc1OCc1ccc2ccccc2n1 | 115 to 117 °C
97 | COc1cccc2cc(CNCCNC(=O)C(C)(C)C)oc12 | 81 to 82 °C
98 | C=CCC(CC=C)C(=O)O[C@H]1C[C@H](O)C=C2C=C[C@H](C)[C@H](CC[C@@H]3C[C@@H](O)CC(=O)O3)[C@H]21 | 159 to 160 °C
